Measured values from patent US4442090A, “Absorption-promoting compounds, compositions thereof with pharmaceuticals and/or bases for rectal administration and method of use” (Kyoto Yakuhin Kogyo Kabushiki Kaisha, priority 1980, dated 1984).
Values joined by “and” are separate entries in the source; they are usually repeats but may differ in a detail not shown here. Equal entries are not always repeated. Values belong to the compound of their own block, whether it stands above or below them.

Columns and labels:
[1] = Blood glucose level after rectal insulin administration (rabbit); format: in vivo; conditions: rectal suppository, Insulin 6 I. U., Compound (I) 5%; for Blood glucose level 0 hr.: Witepsol H-15, baseline, level at hour 0 considered 100%; for Blood glucose level 0.5 hr. / Blood glucose level 0.75 hr. / Blood glucose level 1.0 hr. / Blood glucose level 2.0 hr. / Blood glucose level […].: Witepsol H-15, relative to hour 0 = 100%
Excerpt: To measure glucose levels, blood samples were taken from the auricular vein at timed intervals and assayed by the glucose oxidase method.
The urinary excretion values in Tables 1 to 5 are percentages based on the dose administered. The blood glucose levels in Table 6 are relative blood glucose levels when the blood glucose level at hour 0 is considered to be 100%.

[2] = Urinary excretions of β-lactam antibiotics after rectal suppository (rabbit); format: in vivo; conditions: Compound (I) 5%, Witepsol H-15
Method: The absorption into the circulation through the rectum of the rectal suppositories thus prepared was determined by measuring urinary excretion of the pharmacologically-active substance.
Thus, Sarcina lutea and Bacillus subtilis were used as assay organisms for penicillins and cephalosporins, respectively, and the assays were performed by the paper disk method (cultivation at 37° C. for from 15 to 20 hours).

[3] = Urinary excretions of aminoglycoside antibiotics after rectal suppository (rabbit); conditions: Compound (I) 5%, Witepsol H-15
Method: The thus-obtained suppositories were administered to rabbits and the urinary excretions of the pharmacologically-active substance were determined.
(§1) Each rectal suppository was administered to a depth of 2 cm from the anus of a rabbit fasted 24 hours.
(§2) To measure the urinary excretions, urine samples were collected after administration at timed intervals, diluted and assayed by the biological assay procedure.
Thus, Bacillus subtilis was used as assay organism and the assays were performed by the cylinder plate method (cultivation at 37° C. for 15 to 20 hours).

[4] = Urinary excretions of peptide drugs after rectal suppository (rabbit); conditions: Colistin Sodium Methanesulfonate 150,000 IU, Compound (I) 5%, Witepsol H-15
Method: The thus-obtained suppositories were administered to rabbits from the anus, and the urinary excretions of the pharmacologically-active substance were determined.
as §1, §2
Thus, Escherichia coli was used as assay organism and the assays were performed by the cylinder plate method (cultivation at 37° C. for 15 to 20 hours).

[5] = Urinary excretions of AB-PC after administration of AB-PC rectal suppository (human); format: in vivo; conditions: AB-PC 125 mg (potency); for Urinary excretions of AB-PC (%) (0-6 hr.): Witepsol H-15, % of dose; for Urinary excretions (%) 0-2 (hr.) / Urinary excretions (%) 2-4 (hr.) / Urinary excretions (%) 4-6 (hr.) / Urinary excretions (%) Total (0-6 hr.): Compound (I) 10%, Witepsol H-15, Table 3
Method: The thus-obtained suppositories were administered to healthy adult male humans from the anus, and the urinary excretions of AB-PC were determined.

[6] = Gentamicin sulfate 125 mg (potency)
[7] = Kanamycin sulfate 125 mg (potency)
[8] = Dibekacin sulfate 125 mg (potency)
[9] = Fortimicin sulfate 125 mg (potency)

SMILES: O=C(O)CCCCCCCCCCC(=O)O [Compound 2-Na, 1,10-Decamethylenedicarboxylic acid]
- Urinary excretions (%) 0-2 hr. [3, 6]: 41.2%
- Urinary excretions (%) 2-4 hr. [3, 6]: 9.9%
- Urinary excretions (%) 4-6 hr. [3, 6]: 3.1%
- Urinary excretions (%) Total (0-6 hr.) [3, 6]: 53.2%
- Urinary excretions (%) 0-2 hr. [4]: 20.5%
- Urinary excretions (%) 2-4 hr. [4]: 9.2%
- Urinary excretions (%) 4-6 hr. [4]: 1.8%
- Urinary excretions (%) Total (0-6 hr.) [4]: 31.5%
- Blood glucose level 0 hr. [1]: 100%
- Blood glucose level 0.5 hr. [1]: 57.0%
- Blood glucose level 0.75 hr. [1]: 50.5%
- Blood glucose level 2.0 hr. [1]: 98.5%
- Blood glucose level […]. [1]: 68.5%
- Urinary excretions of AB-PC (%) (0-6 hr.) ([5]; added compound 10%): 25.6%
- Urinary excretions (%) 0-2 hr. ([2]; Cefazolin 125 mg (potency)): 41.5%
- Urinary excretions (%) 2-4 hr. ([2]; Cefazolin 125 mg (potency)): 16.9%
- Urinary excretions (%) 4-6 hr. ([2]; Cefazolin 125 mg (potency)): 3.5%
- Urinary excretions (%) Total (0-6 hr.) ([2]; Cefazolin 125 mg (potency)): 61.9%

SMILES: CCCCOc1ccc(C(=O)O)cc1 [Compound 3-Na, p-Butoxybenzoic acid]
- Urinary excretions (%) 0-2 hr. [3, 7]: 45.1%
- Urinary excretions (%) 4-6 hr. [3, 7]: 2.6%
- Urinary excretions (%) Total (0-6 hr.) [3, 7]: 59.8%
- Blood glucose level 0 hr. [1]: 100%
- Blood glucose level 0.5 hr. [1]: 60.0%
- Blood glucose level 1.0 hr. [1]: 50.5%
- Blood glucose level 2.0 hr. [1]: 103.3%
- Blood glucose level […]. [1]: 79.5%
- Urinary excretions of AB-PC (%) (0-6 hr.) ([5]; added compound 10%): 20.9%
- Urinary excretions (%) 0-2 hr. ([2]; Cefmetazole 125 mg (potency)): 45.0%
- Urinary excretions (%) 2-4 hr. ([2]; Cefmetazole 125 mg (potency)): 20.0%
- Urinary excretions (%) 4-6 hr. ([2]; Cefmetazole 125 mg (potency)): 1.5%
- Urinary excretions (%) Total (0-6 hr.) ([2]; Cefmetazole 125 mg (potency)): 66.5%
- Urinary excretions (%) 0-2 hr. ([2]; FK-749 125 mg (potency)): 41.6%
- Urinary excretions (%) 2-4 hr. ([2]; FK-749 125 mg (potency)): 19.2%
- Urinary excretions (%) 4-6 hr. ([2]; FK-749 125 mg (potency)): 3.0%
- Urinary excretions (%) Total (0-6 hr.) ([2]; FK-749 125 mg (potency)): 63.8%

SMILES: O=C(O)CCCCCCCCCCCC(=O)O [Compound 5-Na, 1,11-Undecamethylene dicarboxylic acid]
- Urinary excretions (%) 0-2 hr. [3, 8]: 41.1%
- Urinary excretions (%) 2-4 hr. [3, 8]: 8.8%
- Urinary excretions (%) 4-6 hr. [3, 8]: 1.1%
- Urinary excretions (%) Total (0-6 hr.) [3, 8]: 51.0%
- Blood glucose level 0 hr. [1]: 100%
- Blood glucose level 0.5 hr. [1]: 60.0%
- Blood glucose level 0.75 hr. [1]: 51.7%
- Blood glucose level 1.0 hr. [1]: 55.2%
- Blood glucose level 2.0 hr. [1]: 110.3%
- Blood glucose level […]. [1]: 80.5%
- Urinary excretions of AB-PC (%) (0-6 hr.) ([5]; Compound (I) 1%): 30.8%
- Urinary excretions (%) 0-2 hr. ([2]; Cefotiam 125 mg (potency)): 40.0%
- Urinary excretions (%) 2-4 hr. ([2]; Cefotiam 125 mg (potency)): 8.0%
- Urinary excretions (%) 4-6 hr. ([2]; Cefotiam 125 mg (potency)): 2.1%
- Urinary excretions (%) Total (0-6 hr.) ([2]; Cefotiam 125 mg (potency)): 60.1%

SMILES: CCCCCCCCCCCCCCCC(=O)N[C@@H](CC(=O)O)C(=O)O [Compound 27-Na, N--Palmitoyl-L-aspartic acid]
- Urinary excretions (%) 0-2 (hr.) [5]: 22.0%
- Urinary excretions (%) 2-4 (hr.) [5]: 4.1%
- Urinary excretions (%) 4-6 (hr.) [5]: 0.7%
- Urinary excretions (%) Total (0-6 hr.) [5]: 26.8%
- Urinary excretions (%) 0-2 hr. ([2]; Cefotiam 125 mg (potency)): 35.2%
- Urinary excretions (%) 2-4 hr. ([2]; Cefotiam 125 mg (potency)): 6.2%
- Urinary excretions (%) 4-6 hr. ([2]; Cefotiam 125 mg (potency)): 0.5%
- Urinary excretions (%) Total (0-6 hr.) ([2]; Cefotiam 125 mg (potency)): 41.9%

Continued, in another order:

- Urinary excretions (%) 0-2 hr. ([2]; 6059-S 125 mg (potency)): 47.2%
- Urinary excretions (%) 2-4 hr. ([2]; 6059-S 125 mg (potency)): 8.6%
- Urinary excretions (%) 4-6 hr. ([2]; 6059-S 125 mg (potency)): 2.0%
- Urinary excretions (%) Total (0-6 hr.) ([2]; 6059-S 125 mg (potency)): 57.8%
SMILES: CCCC(=O)NC(C(=O)O)c1ccccc1 (racemic) [Compound 29-Na, N--Butyryl-DL-phenylglycine]
- Blood glucose level 0 hr. [1]: 100%
- Blood glucose level 0.5 hr. [1]: 60.0%
- Blood glucose level 0.75 hr. [1]: 50.6%
- Blood glucose level 1.0 hr. [1]: 55.0%
- Blood glucose level 2.0 hr. [1]: 111.3%
- Blood glucose level […]. [1]: 81.2%

- Urinary excretions (%) 0-2 hr. [3, 9]: 46.0%
- Urinary excretions (%) 2-4 hr. [3, 9]: 8.0%
- Urinary excretions (%) 4-6 hr. [3, 9]: 2.0%
- Urinary excretions (%) Total (0-6 hr.) [3, 9]: 56.0%
- Urinary excretions (%) 0-2 hr. [3, 6]: 45.0%
- Urinary excretions (%) 2-4 hr. [3, 6]: 6.0%
- Urinary excretions (%) 4-6 hr. [3, 6]: 1.5%
- Urinary excretions (%) Total (0-6 hr.) [3, 6]: 52.5%
- Urinary excretions (%) 0-2 hr. [4]: 21.2% and 18.5%
- Urinary excretions (%) 2-4 hr. [4]: 10.0% and 8.0%
- Urinary excretions (%) 4-6 hr. [4]: 1.2% and 0.8%
- Urinary excretions (%) Total (0-6 hr.) [4]: 32.4% and 27.3%
- Urinary excretions (%) 0-2 (hr.) [5]: 24.0%
- Urinary excretions (%) 2-4 (hr.) [5]: 3.0%
- Urinary excretions (%) 4-6 (hr.) [5]: 1.2%
- Urinary excretions (%) Total (0-6 hr.) [5]: 28.2%
SMILES: CCCCCCCC(=O)N[C@@H](Cc1ccccc1)C(=O)O [Compound 23-Na, N--Capryloyl-L-phenylalanine]
- Blood glucose level 0 hr. [1]: 100%
- Blood glucose level 0.5 hr. [1]: 59.0%
- Blood glucose level 2.0 hr. [1]: 103.0%
- Blood glucose level […]. [1]: 69.5%

- Urinary excretions (%) 0-2 (hr.) [5]: 18.0%
- Urinary excretions (%) 2-4 (hr.) [5]: 5.1%
- Urinary excretions (%) 4-6 (hr.) [5]: 1.0%
- Urinary excretions (%) Total (0-6 hr.) [5]: 23.1%
- Urinary excretions (%) 0-2 hr. ([2]; Cefotaxime 125 mg (potency)): 31.5%
- Urinary excretions (%) 2-4 hr. ([2]; Cefotaxime 125 mg (potency)): 10.0%
- Urinary excretions (%) 4-6 hr. ([2]; Cefotaxime 125 mg (potency)): 0.8%
- Urinary excretions (%) Total (0-6 hr.) ([2]; Cefotaxime 125 mg (potency)): 42.3%
- Urinary excretions (%) 0-2 hr. ([2]; FK-749 125 mg (potency)): 45.0%
- Urinary excretions (%) 2-4 hr. ([2]; FK-749 125 mg (potency)): 5.6%
- Urinary excretions (%) 4-6 hr. ([2]; FK-749 125 mg (potency)): 2.5%
- Urinary excretions (%) Total (0-6 hr.) ([2]; FK-749 125 mg (potency)): 53.1%
SMILES: CCCCCCCCCC(=O)N[C@H](C(=O)O)C(C)C [Compound 24-Na, N--Caprinoyl-L-valine]

- Urinary excretions (%) 0-2 (hr.) [5]: 26.1%
- Urinary excretions (%) 2-4 (hr.) [5]: 3.0%
- Urinary excretions (%) 4-6 (hr.) [5]: 0.9%
- Urinary excretions (%) Total (0-6 hr.) [5]: 30.0%
- Urinary excretions (%) 0-2 hr. ([2]; Cefsulodin 125 mg (potency)): 41.1%
- Urinary excretions (%) 2-4 hr. ([2]; Cefsulodin 125 mg (potency)): 8.2%
- Urinary excretions (%) 4-6 hr. ([2]; Cefsulodin 125 mg (potency)): 0.5%
- Urinary excretions (%) Total (0-6 hr.) ([2]; Cefsulodin 125 mg (potency)): 49.8%
- Urinary excretions (%) 0-2 hr. ([2]; Sulbenicillin 125 mg (potency)): 40.0%
- Urinary excretions (%) 2-4 hr. ([2]; Sulbenicillin 125 mg (potency)): 5.1%
- Urinary excretions (%) 4-6 hr. ([2]; Sulbenicillin 125 mg (potency)): 1.0%
- Urinary excretions (%) Total (0-6 hr.) ([2]; Sulbenicillin 125 mg (potency)): 46.2%
SMILES: CCCCCCCCCCCCCC(=O)N[C@H](C(=O)O)[C@@H](C)O [Compound 26-Na, N--Myristoyl-L-threonine]
